*1 amine or outer side, *2 acyl side, *3 side chain or, on linkers, in order; H or OH if unused. Where a SMILES comes first, the peptide text is derived from it. Side-chain parts run from the residue outwards. [ ]: non-standard residue; d: D form. The star is where a group is joined. X9 = CCCCCCCCCCCCCCCCCC(=O)N[C@@H](CCC(=O)N[C@@H](CCC(=O)N[C@@H](CCC(=O)NCCCC[C@H](NC(=O)COCC(=O)NCCCOCCOCCOCCCN*)C(N)=O)C(=O)O)C(=O)O)C(=O)O; γGlu = O=C(O)[C@H](CCC(=O)[*:2])N[*:1]; 1Nal = N[C@@H](Cc1cccc2ccccc12)C(=O)O; Stearoyl = CCCCCCCCCCCCCCCCCC(=O)*; Palmitoyl = CCCCCCCCCCCCCCCC(=O)*; αMeK = C[C@](N)(CCCCN)C(=O)O; Nle = CCCC[C@H](N)C(=O)O; AEEA = NCCOCCOCC(=O)O; Aib = CC(C)(N)C(=O)O
Biological target: T1, RXFP1 (Homo sapiens, UniProt Q9HBX9)
T1 construct: OVCAR5 cells expressing endogenous RXFP1; endogenous in cells; host or cells: OVCAR5 cells
T1 sequence (Q9HBX9 1-757): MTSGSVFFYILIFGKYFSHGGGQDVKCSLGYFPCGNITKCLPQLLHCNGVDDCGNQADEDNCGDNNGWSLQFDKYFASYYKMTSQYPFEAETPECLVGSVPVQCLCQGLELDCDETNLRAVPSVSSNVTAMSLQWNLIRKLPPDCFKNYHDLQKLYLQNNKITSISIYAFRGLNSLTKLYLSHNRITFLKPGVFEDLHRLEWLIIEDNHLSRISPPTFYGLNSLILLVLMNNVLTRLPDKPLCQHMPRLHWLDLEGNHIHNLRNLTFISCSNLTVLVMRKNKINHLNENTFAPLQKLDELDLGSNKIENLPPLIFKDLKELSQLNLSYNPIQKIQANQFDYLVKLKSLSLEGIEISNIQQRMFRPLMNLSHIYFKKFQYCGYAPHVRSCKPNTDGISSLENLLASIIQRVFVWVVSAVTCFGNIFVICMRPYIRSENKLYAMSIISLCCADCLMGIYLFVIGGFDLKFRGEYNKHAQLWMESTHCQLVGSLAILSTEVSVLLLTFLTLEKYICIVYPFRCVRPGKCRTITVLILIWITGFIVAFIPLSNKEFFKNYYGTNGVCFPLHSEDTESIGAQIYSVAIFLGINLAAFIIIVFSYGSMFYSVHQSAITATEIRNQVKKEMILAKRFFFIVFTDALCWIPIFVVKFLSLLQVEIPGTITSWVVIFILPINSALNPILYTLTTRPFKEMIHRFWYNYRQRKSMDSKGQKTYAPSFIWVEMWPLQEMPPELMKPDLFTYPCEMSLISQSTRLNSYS
Assay: OVCAR5 cAMP assay (HTRF), RXFP1 agonist activity
Assay type: cell-based
Details: for EC50: OVCAR5 cells, cAMP HTRF, read-out: EC50 (nM), OVCAR 5 cells (cAMP); for Emax: OVCAR-5, maximal cAMP relative to H2-relaxin maximum (100%), read-out: EMax, OVCAR 5 cells (cAMP)
Description: OVCAR5 cells expressing endogenous RXFP1 were used to test RXP1 agonist properties of peptides of the invention, and in particular of the peptides of sequence SEQ ID NO: 1-193.
Since RXFP1 is a Gs coupled GPCR, cAMP was used as readout of RXFP1 activation.
Isobutyl Methyl Xanthine (IBMX) was used to inhibit phosphodiesterase activity facilitating cAMP measurements. HTRF (Homogenous Time Resolved Fluorescence) technology was used to detect cAMP due to its great sensitivity.
In summary, OVCAR5 were grown in regular medium (RPMI) containing 10% fetal calf serum (FCS) and 1% antibiotics (penicillin/streptomycin).
Before the experiments, cells were detached with accutase and incubated for 40 minutes at 37° C. with 1 mM (3-isobutyl-1-methylxanthine) IBMX.
Cells were then distributed in 384 black well plates containing increasing concentrations of the different peptides in a fix volume of medium (without FCS).
After an incubation of 30 min at 37° C. in an humid incubator in 5% CO2, the reaction was stopped by adding a fixed volume of a solution containing a lysis buffer and cAMP-D2 (cAMP labeled with the dye d2) and the anti cAMP antibody linked to Europium and used for cAMP detection.
Readout of the experiment were performed on a fluorimeter allowing HTRF measurement. Activation curves were generated by plotting the intracellular value of cAMP versus log 10 of the compound concentration.
The 50% activation concentration (EC50) was calculated by nonlinear regression using the sigmoidal dose-response (variable slope) equation with Prism 5 software.
Emax % is determined as the maximal intracellular value of cAMP for test compound (upper limit of cAMP vs concentration curve) divided by the maximal intracellular value of cAMP for H2-relaxin determined in the same test occasion multiplied by 100. Emax %=100×[cAMPtest cpd]/[cAMPH2-RlX]

EC50	Emax	Compound
	93%	CCCCCCCCCCCCCCCCCC(=O)N[C@@H](CCC(=O)NCCOCCOCC(=O)NCCOCCOCC(=O)NCCOCCOCC(=O)N[C@@H](CCC(=O)N[C@@H](CCC(=O)NCCCC[C@H](NC(=O)[C@H](CCCCN)NC(=O)[C@H](CCCCN)NC(=O)[C@H](CCCNC(=N)N)NC(=O)C(C)(C)NC(=O)[C@H](CO)NC(=O)[C@H](Cc1c[nH]c2ccccc12)NC(=O)[C@@H](NC(=O)[C@H](CO)NC(=O)[C@H](CCCC)NC(=O)CNC(=O)[C@H](CCC(=O)O)NC(=O)C(C)(C)NC(=O)C(C)(C)NC(=O)[C@@H](NC(=O)[C@H](CCC(N)=O)NC(=O)[C@H](C)NC(=O)[C@H](CCCNC(=N)N)NC(=O)[C@@H](NC(=O)[C@H](CCCCN)NC(=O)[C@H](CCC(=O)O)NC(=O)[C@H](CCCNC(=N)N)NC(=O)CNC(=O)[C@H](CCC(=O)O)NC(=O)[C@H](CC(C)C)NC(C)=O)C(C)C)[C@@H](C)CC)[C@@H](C)O)C(N)=O)C(=O)O)C(=O)O)C(=O)O [compound 106] (Ac-LEGREKVRAQI[Aib][Aib]EG[Nle]STWS[Aib]RKKK([γGlu-γGlu-AEEA-AEEA-AEEA-γGlu-Stearoyl])-NH2)
	96%	CCCCCCCCCCCCCCCC(=O)N[C@@H](CCC(=O)N[C@@H](CCC(=O)N[C@@H](CCC(=O)NCCCC[C@H](NC(=O)COCCOCCNC(=O)[C@H](CCCCN)NC(=O)[C@H](CCCNC(=N)N)NC(=O)C(C)(C)NC(=O)[C@H](CO)NC(=O)[C@H](Cc1c[nH]c2ccccc12)NC(=O)[C@@H](NC(=O)[C@H](CO)NC(=O)[C@H](CCCC)NC(=O)CNC(=O)[C@H](CCC(=O)O)NC(=O)C(C)(C)NC(=O)C(C)(C)NC(=O)[C@@H](NC(=O)[C@H](CCC(N)=O)NC(=O)[C@H](C)NC(=O)[C@H](CCCNC(=N)N)NC(=O)[C@@H](NC(=O)[C@H](CCCCN)NC(=O)[C@H](CCC(=O)O)NC(=O)[C@H](CCCNC(=N)N)NC(=O)CNC(=O)[C@H](CCC(=O)O)NC(=O)[C@H](CC(C)C)NC(C)=O)C(C)C)[C@@H](C)CC)[C@@H](C)O)C(N)=O)C(=O)O)C(=O)O)C(=O)O [compound 10] (Ac-LEGREKVRAQI[Aib][Aib]EG[Nle]STWS[Aib]RK[AEEA]K([γGlu-γGlu-γGlu-Palmitoyl])-NH2)

Second part, the compound before the results:

Compound	EC50	Emax
CCCCCCCCCCCCCCCCCC(=O)N[C@@H](CCC(=O)N[C@@H](CCC(=O)N[C@@H](CCC(=O)NCCCC[C@H](NC(=O)COCC(=O)NCCCOCCOCCOCCCNC(=O)[C@H](CCCCNC(C)=O)NC(=O)[C@H](CCCCN)NC(=O)[C@H](CCCNC(=N)N)NC(=O)C(C)(C)NC(=O)[C@H](CO)NC(=O)[C@H](Cc1c[nH]c2ccccc12)NC(=O)[C@@H](NC(=O)[C@H](CO)NC(=O)[C@H](CCCC)NC(=O)CNC(=O)[C@H](CCC(=O)O)NC(=O)C(C)(C)NC(=O)C(C)(C)NC(=O)[C@@H](NC(=O)[C@H](CCCCNC(C)=O)NC(=O)[C@H](C)NC(=O)[C@H](CCCNC(=N)N)NC(=O)[C@@H](NC(=O)[C@H](CCCCN)NC(=O)[C@H](CCC(=O)O)NC(=O)[C@H](CCCNC(=N)N)NC(=O)CNC(=O)[C@H](CCC(=O)O)NC(=O)[C@H](CC(C)C)NC(C)=O)C(C)C)[C@@H](C)CC)[C@@H](C)O)C(N)=O)C(=O)O)C(=O)O)C(=O)O [compound 18] (Ac-LEGREKVRAK(Ac)I[Aib][Aib]EG[Nle]STWS[Aib]RKK(Ac)-X9)	0.41 nM	83%
CCCCCCCCCCCCCCCCCC(=O)N[C@@H](CCC(=O)N[C@@H](CCC(=O)N[C@@H](CCC(=O)NCCOCCOCC(=O)NCCOCCOCC(=O)NCCOCCOCC(=O)NCCOCCOCC(=O)NCCCC[C@H](NC(=O)[C@H](CCCCNC(C)=O)NC(=O)[C@H](C)NC(=O)[C@H](CCCNC(=N)N)NC(=O)[C@](C)(CCCCN)NC(=O)[C@H](CO)NC(=O)[C@H](Cc1c[nH]c2ccccc12)NC(=O)[C@@H](NC(=O)[C@H](CO)NC(=O)[C@H](CCCC)NC(=O)CNC(=O)[C@H](CCC(=O)O)NC(=O)C(C)(C)NC(=O)C(C)(C)NC(=O)[C@@H](NC(=O)[C@H](CCCCNC(C)=O)NC(=O)[C@H](C)NC(=O)[C@H](CCCNC(=N)N)NC(=O)[C@@H](NC(=O)[C@H](CCCCN)NC(=O)[C@H](CCC(=O)O)NC(=O)[C@H](CCCNC(=N)N)NC(=O)CNC(=O)[C@H](CCC(=O)O)NC(=O)[C@H](CC(C)C)NC(C)=O)C(C)C)[C@@H](C)CC)[C@@H](C)O)C(N)=O)C(=O)O)C(=O)O)C(=O)O [compound 135] (Ac-LEGREKVRAK(Ac)I[Aib][Aib]EG[Nle]STWS[αMeK]RAK(Ac)K([AEEA-AEEA-AEEA-AEEA-γGlu-γGlu-γGlu-Stearoyl])-NH2)		97%
CCCCCCCCCCCCCCCCCC(=O)N[C@@H](CCC(=O)N[C@@H](CCC(=O)N[C@@H](CCC(=O)NCCOCCOCC(=O)NCCOCCOCC(=O)NCCOCCOCC(=O)NCCCC[C@H](NC(=O)[C@H](CCCCNC(C)=O)NC(=O)[C@H](CCCCN)NC(=O)[C@H](CCCNC(=N)N)NC(=O)C(C)(C)NC(=O)[C@H](CO)NC(=O)[C@H](Cc1cccc2ccccc12)NC(=O)[C@@H](NC(=O)[C@H](CO)NC(=O)[C@H](CCCC)NC(=O)CNC(=O)[C@H](CCC(=O)O)NC(=O)C(C)(C)NC(=O)C(C)(C)NC(=O)[C@@H](NC(=O)[C@H](CCCCNC(C)=O)NC(=O)C(C)(C)NC(=O)[C@H](CCCNC(=N)N)NC(=O)[C@@H](NC(=O)[C@H](CCCCN)NC(=O)[C@H](CCC(=O)O)NC(=O)[C@H](CCCNC(=N)N)NC(=O)CNC(=O)[C@H](CCC(=O)O)NC(=O)[C@H](CC(C)C)NC(C)=O)C(C)C)[C@@H](C)CC)[C@@H](C)O)C(N)=O)C(=O)O)C(=O)O)C(=O)O [compound 85] (Ac-LEGREKVR[Aib]K(Ac)I[Aib][Aib]EG[Nle]ST[1Nal]S[Aib]RKK(Ac)K([AEEA-AEEA-AEEA-γGlu-γGlu-γGlu-Stearoyl])-NH2)		75%
CCCCCCCCCCCCCCCC(=O)N[C@@H](CCC(=O)NCCCC[C@H](NC(=O)CC[C@H](NC(=O)CC[C@H](NC(=O)CC[C@H](NC(=O)COCCOCCNC(=O)COCCOCCNC(=O)COCCOCCNC(=O)COCCOCCNC(=O)[C@H](CCCCN)NC(=O)[C@H](CCCCN)NC(=O)[C@H](CCCCN)NC(=O)[C@H](CCCNC(=N)N)NC(=O)C(C)(C)NC(=O)[C@H](CO)NC(=O)[C@H](Cc1c[nH]c2ccccc12)NC(=O)[C@@H](NC(=O)[C@H](CO)NC(=O)[C@H](CCCC)NC(=O)CNC(=O)[C@H](CCC(=O)O)NC(=O)C(C)(C)NC(=O)C(C)(C)NC(=O)[C@@H](NC(=O)[C@H](CCC(N)=O)NC(=O)[C@H](C)NC(=O)[C@H](CCCNC(=N)N)NC(=O)[C@@H](NC(=O)[C@H](CCCCN)NC(=O)[C@H](CCC(=O)O)NC(=O)[C@H](CCCNC(=N)N)NC(=O)CNC(=O)[C@H](CCC(=O)O)NC(=O)[C@H](CC(C)C)NC(C)=O)C(C)C)[C@@H](C)CC)[C@@H](C)O)C(=O)O)C(=O)O)C(=O)O)C(N)=O)C(=O)O [compound 108] (Ac-LEGREKVRAQI[Aib][Aib]EG[Nle]STWS[Aib]RKKK[AEEA][AEEA][AEEA][AEEA][γGlu][γGlu][γGlu]K([γGlu-Palmitoyl])-NH2)	0.15 nM	94%
CCCCCCCCCCCCCCCC(=O)N[C@@H](CCC(=O)N[C@@H](CCC(=O)NCCCC[C@H](NC(=O)CC[C@H](NC(=O)CC[C@H](NC(=O)COCCOCCNC(=O)COCCOCCNC(=O)COCCOCCNC(=O)COCCOCCNC(=O)[C@H](CCCCNC(C)=O)NC(=O)[C@H](CCCCN)NC(=O)[C@H](CCCNC(=N)N)NC(=O)[C@](C)(CCCCN)NC(=O)[C@H](CO)NC(=O)[C@H](Cc1ccccc1)NC(=O)[C@@H](NC(=O)[C@H](CO)NC(=O)[C@H](CCCC)NC(=O)CNC(=O)[C@H](CCC(=O)O)NC(=O)C(C)(C)NC(=O)C(C)(C)NC(=O)[C@@H](NC(=O)[C@H](CCCCNC(C)=O)NC(=O)[C@H](C)NC(=O)[C@H](CCCNC(=N)N)NC(=O)[C@@H](NC(=O)[C@H](CCCCN)NC(=O)[C@H](CCC(=O)O)NC(=O)[C@H](CCCNC(=N)N)NC(=O)CNC(=O)[C@H](CCC(=O)O)NC(=O)[C@H](CC(C)C)NC(C)=O)C(C)C)[C@@H](C)CC)[C@@H](C)O)C(=O)O)C(=O)O)C(N)=O)C(=O)O)C(=O)O [compound 159] (Ac-LEGREKVRAK(Ac)I[Aib][Aib]EG[Nle]STFS[αMeK]RKK(Ac)[AEEA][AEEA][AEEA][AEEA][γGlu][γGlu]K([γGlu-γGlu-Palmitoyl])-NH2)	0.02 nM	88%

Source: patent US10988523B2, “Modified lipidated Relaxin B chain peptides and their therapeutic use” (Sanofi, priority 2018, dated 2021)
